Results from US20050245399A1, “Pyrazole derivatives as herbicidal compositions containing them” (ISHIHARA SANGYO KAISHA, LTD., priority 2004, published 2005).

Key:
Assay type in all cases: in vivo
[1] = test system: corn (Zea mays L.): ZEAMX; assay: Test Example 1 pre-emergence herbicidal activity, ZEAMX; conditions: visually observed 20th to 23rd day after application
Method in brief: (§1)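 Compound was delivered by small sprayer to sown upland soil one day after sowing, before emergence, at 500 L/ha spray volume. Plant growth was assessed visually around 3 weeks later (days 20–23), 100% denoting complete kill.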

[2] = test system: rice (Oryza sativa L.), ORYSA; assay: Test Example 2 post-emergence (foliage treatment) herbicidal activity, ORYSA; conditions: 63 g a.i./ha
Method in brief: (§2)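 Greenhouse pot test with upland field soil. Treatment: foliage spray, active ingredient at a predetermined amount, 500 L/ha, spreader 0.1% (v/v); leaf stage 0.1-1.5 (AMARE), 1.1-2.1 (ECHCG), 1.0-2.0 (DIGSA), 1.0-2 (ORYSA). Endpoint: visual % control, d20-23.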

[3] = test system: velvetleaf (Abutilon theophrasti), ABUTH; assay: Test Example 2 post-emergence (foliage treatment) herbicidal activity, ABUTH; conditions: 63 g a.i./ha
Method in brief: (§3)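 Each species was evaluated for growth suppression by eye, 0% matching untreated and 100% meaning death, some 20 to 23 days after a single post-emergence foliar treatment applied in 500 L/ha of water carrying 0.1% (v/v) agricultural spreader.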

[4] = test system: soybean (Glycine max Merr.): GLXMA; assay: Test Example 1 pre-emergence herbicidal activity, GLXMA; conditions: visually observed 20th to 23rd day after application
Method in brief: as §1

[5] = test system: redroot pigweed (Amaranthus retroflexus L.): AMARE; assay: Test Example 1 pre-emergence herbicidal activity, AMARE; conditions: visually observed 20th to 23rd day after application
Method in brief: as §1

[6] = test system: soybean (Glycine max Merr.), GLXMA; assay: Test Example 2 post-emergence (foliage treatment) herbicidal activity, GLXMA; conditions: 63 g a.i./ha
Method in brief: as §3

[7] = test system: velvetleaf (Abutilon theophrasti): ABUTH; assay: Test Example 1 pre-emergence herbicidal activity, ABUTH; conditions: visually observed 20th to 23rd day after application
Method in brief: as §1

[8] = test system: japanese bulrush (Scirpus juncoides: SCPJO); assay: Test Example 3 water application herbicidal activity (paddy), SCPJO; conditions: 63 g a.i./ha, water application under submerged condition at 0.5 leaf stage, visually observed 14th day after application; 0 = untreated control, 100 = complete kill
Method in brief: (§4)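 Compound, as diluted wettable powder or emulsifiable concentrate, was pipetted into flood water at a set active-ingredient dose. Weeds were treated at 0.5-leaf stage after sowing or tuber planting; 2-leaf rice 4 days post-transplant. Control scored visually, 0 untreated to 100 complete kill, weeds day 14, rice day 21.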

[9] = test system: rice (Oryza sativa L.): ORYSA; assay: Test Example 1 pre-emergence herbicidal activity, ORYSA; conditions: visually observed 20th to 23rd day after application
Method in brief: as §1

[10] = test system: prickly sida (Sida spinosa L.): SEDSP; assay: Test Example 1 pre-emergence herbicidal activity, SIDSP; conditions: visually observed 20th to 23rd day after application
Method in brief: as §1

[11] = test system: japanese ribbon wapato (Sagittaria pygmaea: SA GPY); assay: Test Example 3 water application herbicidal activity (paddy), SAGPY; conditions: 63 g a.i./ha, water application under submerged condition, tubers planted, visually observed 14th day after application; 0 = untreated control, 100 = complete kill
Method in brief: as §4

[12] = test system: green foxtail (Setaria viridis L.): SETVI; assay: Test Example 1 pre-emergence herbicidal activity, SETVI; conditions: visually observed 20th to 23rd day after application
Method in brief: as §1

[13] = test system: barnyardgrass (Echinochloa crus-galli L.): ECHCG; assay: Test Example 1 pre-emergence herbicidal activity, ECHCG; conditions: visually observed 20th to 23rd day after application
Method in brief: as §1

[14] = test system: crabgrass (Digitaria sanguinalis L.), DIGSA; assay: Test Example 2 post-emergence (foliage treatment) herbicidal activity, DIGSA; conditions: 63 g a.i./ha
Method in brief: as §2

[15] = test system: corn (Zea mays L.), ZEAMX; assay: Test Example 2 post-emergence (foliage treatment) herbicidal activity, ZEAMX; conditions: 63 g a.i./ha
Method in brief: as §3

[16] = test system: barnyardgrass (Echinochloa crus-galli L.), ECHCG; assay: Test Example 2 post-emergence (foliage treatment) herbicidal activity, ECHCG; conditions: 63 g a.i./ha
Method in brief: as §2

[17] = test system: crabgrass (Digitaria sanguinalis L.): DIGSA; assay: Test Example 1 pre-emergence herbicidal activity, DIGSA; conditions: visually observed 20th to 23rd day after application
Method in brief: as §1

[18] = test system: barnyardgrass (Echinochiloa oryzicola: ECHOR); assay: Test Example 3 water application herbicidal activity (paddy), ECHOR; conditions: 63 g a.i./ha, water application under submerged condition at 0.5 leaf stage, visually observed 14th day after application; 0 = untreated control, 100 = complete kill
Method in brief: as §4

[19] = test system: wheat (Triticum aestivum L.): TRZAX; assay: Test Example 1 pre-emergence herbicidal activity, TRZAX; conditions: visually observed 20th to 23rd day after application
Method in brief: as §1

[20] = test system: wheat (Triticum aestivum L.), TRZAX; assay: Test Example 2 post-emergence (foliage treatment) herbicidal activity, TRZAX; conditions: 63 g a.i./ha
Method in brief: as §3

[21] = test system: prickly sida (Sida spinosa L.), SIDSP; assay: Test Example 2 post-emergence (foliage treatment) herbicidal activity, SIDSP; conditions: 63 g a.i./ha
Method in brief: as §3

[22] = test system: green foxtail (Setaria viridis L.), SETVI; assay: Test Example 2 post-emergence (foliage treatment) herbicidal activity, SETVI; conditions: 63 g a.i./ha
Method in brief: as §3

[23] = test system: redroot pigweed (Amaranthus retroflexus L.), AMARE; assay: Test Example 2 post-emergence (foliage treatment) herbicidal activity, AMARE; conditions: 63 g a.i./ha
Method in brief: as §2

[24] = test system: rice (Oryza sativa L.: ORYSA); assay: Test Example 3 water application herbicidal activity (paddy), transplanted rice ORYSA; conditions: 63 g a.i./ha, water application 4th day after transplantation of 2 leaf stage rice, visually observed 21st day after application; 0 = untreated control, 100 = complete kill
Method in brief: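 Rice at 2-leaf stage is transplanted into flooded puddled soil and treated by water application 4 days later, at a predetermined active-ingredient dose. Crop injury is rated visually as growth control (0–100%) 21 days after treatment.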

Structure (SMILES) | Pre-emergence Herbicidal Activity ZEAMX (growth controlling degree) ([1]; Rate 63 g a.i./ha) | growth controlling degree, ORYSA [2] | growth controlling degree, ABUTH [3] | Pre-emergence Herbicidal Activity GLXMA (growth controlling degree) ([4]; Rate 63 g a.i./ha) | Pre-emergence Herbicidal Activity AMARE (growth controlling degree) ([5]; Rate 63 g a.i./ha) | growth controlling degree, GLXMA [6] | Pre-emergence Herbicidal Activity ABUTH (growth controlling degree) ([7]; Rate 63 g a.i./ha) | growth controlling degrees (%) SCPJO [8] | Pre-emergence Herbicidal Activity ORYSA (growth controlling degree) ([9]; Rate 63 g a.i./ha) | Pre-emergence Herbicidal Activity SIDSP (growth controlling degree) ([10]; Rate 63 g a.i./ha) | growth controlling degrees (%) SAGPY [11] | growth controlling degree, DIGSP [14] | growth controlling degree, ZEAMX [15] | growth controlling degree, ECHCO [16] | growth controlling degrees (%) ECHOR [18] | growth controlling degree, TRZAX [20] | growth controlling degree, SIDSP [21] | growth controlling degree, SETVI [22] | growth controlling degree, AMARE [23] | growth controlling degrees (%) ORYSA [24] | further results
COc1c(Cl)cc(F)c(-c2nn(C)c(OC(F)F)c2Cl)c1N(C=O)C(C)C [Compound 1-8] | 40% | 60% | 100% | 70% | 100% | 70% | 100% | 60% | 60% | 100% | 20% | 60% | 40% | 70% | 80% | 50% | 100% | 100% | 100% | 30% | Pre-emergence Herbicidal Activity SETVI (growth controlling degree) ([12]; Rate 63 g a.i./ha): 100%; Pre-emergence Herbicidal Activity ECHCG (growth controlling degree) ([13]; Rate 63 g a.i./ha): 70%; Pre-emergence Herbicidal Activity DIGSP (growth controlling degree) ([17]; Rate 63 g a.i./ha): 60%; Pre-emergence Herbicidal Activity TRZAX (growth controlling degree) ([19]; Rate 63 g a.i./ha): 50%
COc1c(Cl)cc(F)c(-c2nn(C)c(OC(F)F)c2Cl)c1NC(=O)COc1ccccc1 [Compound 1-15] | 10% | 80% | 100% | 30% | 100% | 50% | 60% | 90% | 40% | 60% | 98% | 70% | 50% | 90% | 100% | 50% | 100% | 100% | 100% | 50% | Pre-emergence Herbicidal Activity SETVI (growth controlling degree) ([12]; Rate 63 g a.i./ha): 100%; Pre-emergence Herbicidal Activity ECHCG (growth controlling degree) ([13]; Rate 63 g a.i./ha): 70%; Pre-emergence Herbicidal Activity DIGSP (growth controlling degree) ([17]; Rate 63 g a.i./ha): 100%; Pre-emergence Herbicidal Activity TRZAX (growth controlling degree) ([19]; Rate 63 g a.i./ha): 30%
COc1c(Cl)cc(F)c(-c2nn(C)c(OC(F)F)c2Cl)c1N(C(=O)CCc1ccccc1)C(=O)CCc1ccccc1 [Compound 1-18] | – | 60% | 100% | – | – | 60% | – | 40% | – | – | 50% | 70% | 60% | 70% | 100% | 10% | 100% | 80% | 100% | 30% | Pre-emergence Herbicidal Activity ZEAMX (growth controlling degree) ([1]; Rate 125 g a.i./ha): 0%; Pre-emergence Herbicidal Activity GLXMA (growth controlling degree) ([4]; Rate 125 g a.i./ha): 20%; Pre-emergence Herbicidal Activity AMARE (growth controlling degree) ([5]; Rate 125 g a.i./ha): 100%; Pre-emergence Herbicidal Activity ABUTH (growth controlling degree) ([7]; Rate 125 g a.i./ha): 40%; Pre-emergence Herbicidal Activity ORYSA (growth controlling degree) ([9]; Rate 125 g a.i./ha): 50%; Pre-emergence Herbicidal Activity SIDSP (growth controlling degree) ([10]; Rate 125 g a.i./ha): 60%; Pre-emergence Herbicidal Activity SETVI (growth controlling degree) ([12]; Rate 125 g a.i./ha): 50%; Pre-emergence Herbicidal Activity ECHCG (growth controlling degree) ([13]; Rate 125 g a.i./ha): 70%; Pre-emergence Herbicidal Activity DIGSP (growth controlling degree) ([17]; Rate 125 g a.i./ha): 98%; Pre-emergence Herbicidal Activity TRZAX (growth controlling degree) ([19]; Rate 125 g a.i./ha): 30%
COC(=O)CN(C=O)c1c(OC)c(Cl)cc(F)c1-c1nn(C)c(OC(F)F)c1Cl [Compound 1-20] | – | 50% | 60% | – | – | 50% | – | 20% | – | – | 0% | 20% | 40% | 10% | 90% | 10% | 90% | 70% | 100% | 30% | Pre-emergence Herbicidal Activity ZEAMX (growth controlling degree) ([1]; Rate 125 g a.i./ha): 0%; Pre-emergence Herbicidal Activity GLXMA (growth controlling degree) ([4]; Rate 125 g a.i./ha): 10%; Pre-emergence Herbicidal Activity AMARE (growth controlling degree) ([5]; Rate 125 g a.i./ha): 100%; Pre-emergence Herbicidal Activity ABUTH (growth controlling degree) ([7]; Rate 125 g a.i./ha): 80%; Pre-emergence Herbicidal Activity ORYSA (growth controlling degree) ([9]; Rate 125 g a.i./ha): 0%; Pre-emergence Herbicidal Activity SIDSP (growth controlling degree) ([10]; Rate 125 g a.i./ha): 98%; Pre-emergence Herbicidal Activity SETVI (growth controlling degree) ([12]; Rate 125 g a.i./ha): 10%; Pre-emergence Herbicidal Activity ECHCG (growth controlling degree) ([13]; Rate 125 g a.i./ha): 10%; Pre-emergence Herbicidal Activity DIGSP (growth controlling degree) ([17]; Rate 125 g a.i./ha): 30%; Pre-emergence Herbicidal Activity TRZAX (growth controlling degree) ([19]; Rate 125 g a.i./ha): 0%
